Results on three compounds are retold here after patent publication US4269940A, “Microbiological alkane oxidation process” (priority 1979, dated 1981).

In test [1] the test system is cell suspensions of the strains of C1-utilizers tested. Kind of test: Production of methyl ketones from secondary alcohols by cell suspensions of C1-utilizers (strains tested). The test is classed as cell-based. The conditions noted are these: cell suspensions of C1-utilizers. From the text:
The substrate specificity for the oxidation of C3 -C6 secondary alcohols by the strains of C1 -utilizers was studied.

For test [2], the system named is secondary alcohol dehydrogenase (SADH). Nature of the test: Substrate specificity and Michaelis constants of purified SADH. It is filed as biochemical, Pseudomonas sp. ATCC 21439. On the procedure: Secondary alcohol dehydrogenase (SADH) from an obligate methanol utilizer, Pseudomonas sp. ATCC 21439 was purified as follows. […] 0.05 M sodium phosphate buffer, pH 7.0 with 0.5mM dithiothretol (buffer A) and were disrupted sonically (5×1 min.). The crude extract was separated by centrifugation. The crude extract was heat-treated at 50° C. in a water bath for 10 minutes. The resulting precipitate was removed by centrifugation. To the supernatant solution, 25 ml of protamine sulfate solution (2% solution in 0.1 M Tris base) was added dropwise with continuous stirring. After standing for 30 minutes, the extract was centrifuged. The supernatant solution was fractionated with solid ammonium sulfate. […] This DEAE-cellulose eluate was concentrated by ammonium sulfate fractionation. Material precipitating between 30 and 50% ammonium sulfate saturation was collected by centrifugation and dialyzed overnight against A. This fraction was further washed and filtered through an Amicon unit with XM 50 membrane. The concentrated fraction (6 ml) inside the Amicon unit was applied to an Affi-Gel Blue column (0.8 cm ×18 cm) which had been equilibrated with buffer A for affinity chromatography. The column was washed overnight with buffer A (0.18 ml./min.) and then was eluted with buffer A containing 5 mM NAD. Each 1 ml. fraction was collected.
The purified secondary alcohol dehydrogenase enzyme (SADH) may be used directly for converting C3 -C6 secondary alcohols to the corresponding methyl ketones by the procedures described above; however, a source of NAD^+ must be added to the reaction medium. One can determine the NAD-linked secondary alcohol dehydrogenase activity with a fluorescence spectrophotometer (Perkin Elmer, Model MPF 44A) by following the formation of reduced NAD (Ex 340 nm, Em 460 nm). The assay system (3 ml.) will typically contain: sodium phosphate buffer pH 7.0, 150 μmol; NAD 1.0 μmol; a given amount of enzyme preparation; and 20 μmol secondary alcohol. The reaction is started by the addition of secondary alcohol. One unit of SADH enzyme activity represents the reduction of one nmole NAD per minute.

The subject of test [3] is purified secondary alcohol dehydrogenase. Nature of the test: Substrate and electron acceptor specificity of purified yeast secondary alcohol dehydrogenase. It is filed as biochemical, Pichia sp. NRRL Y-11,328. The note with it: examined spectrophotometrically. On the procedure: Large scale cultures of Pichia sp. NRRL Y-11,328 were grown with aeration at 30° C. in a 14-liter New Brunswick f fermentor in a mineral salt medium containing methanol (0.4%, v/v) as the sole carbon source. The cells (200 g., wet weight) were suspended in 50 mm sodium phosphate buffer, pH 7.0, containing 1 mM dithiothreitol (buffer A), and crude extracts were prepared as described previously. To the crude extracts, 18 ml. of protamine sulfate solution [2% solution in 0.1 M tris (hydroxymethyl) aminomethane (tris) base] was added dropwise with continuous stirring. After standing for 30 min., the extracts were centrifuged at 20,000 x g. for 60 min. The supernatant solution was fractioned with solid ammonium sulfate. Extracts were brought to 50% of saturation with respect to ammonium sulfate by addition of 313 g. of the salt per liter of extract. Precipitated proteins was removed by centrifugation, and 137 g. of ammonium sulfate was added per liter of the supernatant liquid to bring it to 70% of saturation. Material precipitating between 50 and 70% of saturation was collected by centrifugation and dissolved in buffer A. This preparation was dialyzed overnight against buffer A, and the dialyzed material was applied to a DEAE-cellulose column (5×40 cm) that had been equilibrated with buffer A. The sample was washed with 200 ml. of buffer A and eluted with 2 liters of buffer A that contained NaCl in a linear gradient running from a concentration of 0 to 0.5 M. Fractions of 15 ml. were collected. Fractions containing secondary alcohol dehydrogenase activity were pooled and were termed DEAE-cellulose eluate. The DEAE-cellulose eluate was concentrated by ammonium sulfate fractionation.
Secondary alcohol dehydrogenase activity was measured spectrophotometrically at 340 nm with a NAD^+ as an electron acceptor. The reaction mixture, in a total 3.0 ml., contained 50 mM phosphate buffer, pH 8.0, 5μmoles NAD^+, crude extracts, and substrate. The reactions were started by addition of 100 μof 0.1 M substrate and the rate of NAD^+ reduction was measured. Protein concentration was determined by the method of Lowry et al.
The substrate specificity of the purified secondary alcohol dehydrogenase was examined spectrophotometrically.

Test [4] shares this test system. Nature of the test: Stoichiometry of isopropanol and sec-butanol oxidation by the purified secondary alcohol dehydrogenase (Table XXIV). The note with it: substrate 5.7 (isopropanol) or 6.0 (2-butanol) μmoles. The test is classed as biochemical, Pichia sp. NRRL Y-11,328. On the procedure: ^a The estimation of NAD^+ reduced was measured
spectrophotometrically at 340 nm.
^b The estimation of products was detected by gas chromatography as
described in the methods.

Test [5] has as its system cell-free extracts of strain ATCC 21439. The note with it: 30° C.
Experimental: The reaction mixtures 3 ml (1.0 mg protein) were incubated at 30°
C. for 10 min. (exp. 1) and for 20 min. (exp. 2) in the presence of 1.0
^a Determined gas chromatographically.
^b Determined fluorescence spectrophotometrically. Endogenous
consumption of NAD was corrected.
Test [6] relates to P(40) particulate fraction of Methylosinus sp. (CRL-15, NRRL B-11,202). Nature of the test: Oxidation of n-alkenes and n-alkanes by P(40) particulate fraction (Table X). The test is classed as biochemical. The conditions noted are these: P(40) fraction, 30° C.
Test [7] shares this test system. Nature of the test: Substrate competition: effect of methane on propylene epoxidizing activity of P(40) fraction (Table XIII). The note with it: gaseous substrate as named. The test is classed as biochemical. On the procedure:
The oxidation of methane and propylene by particulate [(P)40 and (P)80] fractions and soluble [S(80)] fraction was measured at 30° C. by estimating the production of methanol and propylene oxide, respectively. The reaction mixtures contained in 1.0 ml: 150 mM potassium phosphate buffer, pH 7.0 containing 5 mM MgC2, 0.6 ml; 10 μmoles NADH, and cellular fraction.
Reaction mixtures were contained in 10 ml vials at 4° C. Vials were sealed with rubber caps. The gaseous phase in the vials was removed using vacuum and then was replaced with a gas mixture of methane or propylene and oxygen at a 1:1, v/v ratio. Oxidation of other gaseous n-alkanes and n-alkenes was examined as described above. For liquid substrates, 10 μ of substrate was used directly.
The hydroxylation of methane and the epoxidation of propylene by particulate fractions of methane-utilizing bacteria required oxygen and NADH. The question of whether the same or a similar enzyme was involved in the oxidation of both substrates was examined by substrate competition experiments. The experiment consisted of determining the effect of methane on the oxidation of propylene to propylene oxide by the P(40) particulate fraction of Methylosinus sp. (CRL-15, NRRL B-11,202).

For test [8] the test system is unchanged. Nature of the test: Stoichiometry of propylene epoxidation and methane hydroxylation by P(40) fraction (Table XIV). It is filed as biochemical. The note with it: 5.0 μmoles substrate; for Product formed: gas chromatography; for O2 consumed: polarographic; for NADH oxidized: spectrophotometric. On the procedure:
The particulate P(40) fraction of Methylosinus sp. (CRL-15, NRRL B-11,202) was used to determine the stoichiometry of hydroxylation and epoxidation reactions. The stoichiometry of methane or propylene-dependant NADH oxidation, oxygen consumption and product formation was approximately 1:1:1 Table XIV. This is consistent with methane or propylene oxygenation being catalyzed by a mono-oxygenase.
^a Under identical condition of reaction, the estimation of NADH
oxidized was carried out spectrophotometrically, the estimation of oxygen
consumed was measured polarographically, and the estimation of product
formed was carried out by gas chromatography.

For test [9], the system named is cell-free particulate fractions derived from the methylotrophic microorganisms. Kind of test: Inhibition of conversion of C3-C6 n-alkanes to sec. alcohols by cell-free particulate fractions. The test is classed as biochemical. The note with it: oxygen and NADH. From the text:
The conditions for preparing the cell suspensions or the cell-free particulate fractions from methane-grown methylotroph microorganisms is the same as described above.

Each structure is given as a SMILES string. Like-named read-outs stand apart in the source and are kept apart here.

As for `CCC(C)O` (centres unmarked) [2-butanol], in [1], the “Rate of oxidation of secondary alcohols to methyl ketones” value is “higher rates”. For the same compound, the “Oxidation by purified SADH (in words)” value in [2] is reported as “highest”. Besides, in test [3], the “Oxidation by the purified yeast enzyme (in words)” value is listed as “catalyzed the oxidation”. The “Product formed (acetone or 2-butanone)” value in test [4] (gas chromatography) stood at 5.7 µmol. Besides, in test [4] (spectrophotometrically at 340 nm), the “NAD^+ reduced” value is 5.9 µmol. For the same compound, the 2-Butanol consumed in [5] (experiment 1, 10 min.) was determined as 260 nmol; in [5] (experiment 2, 20 min.), 530 nmol. Besides, the NAD consumed in test [5] (experiment 2, 20 min.) came to 540 nmol.

Turning to `C` [Methane], the “Rate of product formation (substrate to epoxide or alcohol)” value in test [6] is 4.8 μ moles/hr/mg of protein. Moreover, the Propylene oxide produced in test [7] worked out at 0 μmoles/hr/mg. protein. In [8], this compound gave a Product formed of 4.2 µmol, an O2 consumed of 4.6 µmol and an NADH oxidized of 4.8 µmol.

Turning to `C=CC` [Propylene], the “Rate of product formation (substrate to epoxide or alcohol)” value in [6] was 4.1 μ moles/hr/mg of protein. The “Inhibition of conversion of C3-C6 n-alkanes to sec. alcohols (in words)” value in test [9] was “inhibit”. Further, the “Inhibition of conversion of C3-C6 n-alkanes to sec. alcohols (in words)” value in test [9] (listed as propylene) was “inhibited”. Moreover, the Propylene oxide produced in test [7] amounted to 4.3 μmoles/hr/mg. protein. In addition, in test [8], the Product formed came to 4.5 µmol, the O2 consumed came out at 4.8 µmol and the NADH oxidized was 5.0 µmol.
